Results reported in patent publication US10114018B2, “IL-2 peptide derivatives, and uses thereof for the diagnosis and treatment of an autoimmune disease” (INSERM (INSTITUT NATIONAL DE LA SANTÉ ET DE LA RECHERCHE …, priority 2014, dated 2018).

System: PBMCs from HD or T1D patients
Experiment: Quantification of IL-2 specific T cells by IFN-g ELISPOT
Format: cell-based, human
Settings: peptides 10 μM/each; T1D patients (n=13) vs HD (n=14) PBMCs
Description: IFN-g production by PBMCs from HD (n=14, closed circles) or T1D patients (n=13, open circles) was quantified by ELISPOT after stimulation with hIL-2 or Proleukin (Pro) peptides (10 μM/each) that gave a positive response in the initial pool screening, intracellular IA-2, adenovirus lysate (AdV) or PHA.

## EFLNRWITFSQSIIS (Synthetic fragment) [Pro116-130]
  IFN-g production by PBMCs (ELISPOT, IFN-g spot-forming cells/10^6 PBMCs): can induce IFN-g production in a significantly higher frequency of T1D PBMCs compared to HD PBMCs
